The source made the active and inactive calls. The rule behind the calls is not given here.
What was measured:
[1] = molecular target: T1, Oxysterols receptor LXR-beta (Mus musculus) (UniProt Q60644); experiment: Agonist activity at LXRbeta in mouse BV2 cells assessed as degradation of intracellular soluble amyloid beta42 at 0.01 uM preincubated for 18 hrs followed by soluble amyloid beta42 addition measured after 24 hrs by ELISA relative to vehicle-treated control; assay type: cell-based; conditions: BV-2
T1 sequence (whole entry): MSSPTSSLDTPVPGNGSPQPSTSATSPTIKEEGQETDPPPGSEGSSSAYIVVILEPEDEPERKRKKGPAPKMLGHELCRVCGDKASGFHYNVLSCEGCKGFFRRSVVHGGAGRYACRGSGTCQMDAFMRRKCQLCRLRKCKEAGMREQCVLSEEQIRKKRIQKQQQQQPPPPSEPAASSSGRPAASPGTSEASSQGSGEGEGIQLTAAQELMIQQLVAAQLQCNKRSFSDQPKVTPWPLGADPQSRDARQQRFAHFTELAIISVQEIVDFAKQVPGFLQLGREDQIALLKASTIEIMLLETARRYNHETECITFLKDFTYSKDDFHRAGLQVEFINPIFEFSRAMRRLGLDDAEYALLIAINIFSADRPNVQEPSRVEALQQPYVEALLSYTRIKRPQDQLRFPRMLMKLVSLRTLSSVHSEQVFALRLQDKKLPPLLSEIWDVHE

Mus musculus [2] = experiment: (§1) Antialzheimer activity in double transgenic B6C3 mouse overexpressing APP swedish mutant and PSEN1dE9 assessed as reduction of amyloid beta42 plaque number in brain at 10 mg/kg, ip administered 3 times per week measured after 6 weeks by thioflavin S staining-based fluorescence microscopic analysis relative to vehicle-treated control; assay type: functional, organism-based; design: dose 10 mg/kg
BV-2 [3] = experiment: Upregulation of IDE mRNA expression in mouse BV2 cells at 0.01 to 1 uM after 18 hrs by real-time qPCR analysis; assay type: functional, cell-based
BV-2 [4] = experiment: Cytotoxicity against mouse BV2 cells assessed as inhibition of cell viability at 50 uM after 48 hrs by SRB assay relative to vehicle-treated control; assay type: cell-based; conditions: bv-2, 48 h
Mus musculus [5] = experiment: as §1, with “beta” for “beta42”, “load” for “number”; assay type: functional, organism-based; design: dose 10 mg/kg
HepG2 [6] = experiment: Cytotoxicity against human HepG2 cells assessed as inhibition of cell viability at 50 uM after 48 hrs by SRB assay relative to vehicle-treated control; assay type: cell-based; conditions: hepg2, 48 h, 50 µM
[7] = molecular target: T1, Oxysterols receptor LXR-beta (Mus musculus); experiment: Agonist activity at LXRbeta in mouse BV2 cells assessed as degradation of intracellular soluble amyloid beta42 at 0.1 uM preincubated for 18 hrs followed by soluble amyloid beta42 addition measured after 24 hrs by ELISA relative to vehicle-treated control; assay type: cell-based; conditions: BV-2
[8] = molecular target: T2, Oxysterols receptor LXR-alpha (Homo sapiens) (UniProt Q13133); experiment: Agonist activity at human LXRalpha transfected in HEK293 cells at 0.1 uM after 24 hrs by luciferase reporter gene assay relative to vehicle-treated control; assay type: cell-based
T2 sequence (whole entry): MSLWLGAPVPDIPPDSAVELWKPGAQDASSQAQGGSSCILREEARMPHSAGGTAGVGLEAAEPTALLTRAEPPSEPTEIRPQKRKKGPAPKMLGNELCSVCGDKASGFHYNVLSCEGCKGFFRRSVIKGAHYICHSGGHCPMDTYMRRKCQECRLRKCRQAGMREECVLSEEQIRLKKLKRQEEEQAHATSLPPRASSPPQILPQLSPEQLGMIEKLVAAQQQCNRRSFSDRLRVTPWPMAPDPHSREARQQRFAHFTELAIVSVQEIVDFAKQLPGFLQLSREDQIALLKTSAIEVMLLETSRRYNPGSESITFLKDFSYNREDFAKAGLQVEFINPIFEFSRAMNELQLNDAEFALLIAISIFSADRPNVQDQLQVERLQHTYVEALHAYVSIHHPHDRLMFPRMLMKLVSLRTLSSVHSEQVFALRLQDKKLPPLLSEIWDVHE

[9] = molecular target: T1, Oxysterols receptor LXR-beta (Mus musculus); experiment: Agonist activity at LXRbeta in mouse BV2 cells assessed as upregulation of ABCA1 protein expression at 1 uM after 12 to 48 hrs by Western blot analysis; assay type: cell-based; conditions: BV-2
[10] = molecular target: T1, Oxysterols receptor LXR-beta (Mus musculus); experiment: Agonist activity at LXRbeta in mouse BV2 cells assessed as degradation of intracellular soluble amyloid beta42 at 1 uM preincubated for 18 hrs followed by soluble amyloid beta42 addition measured after 24 hrs by ELISA relative to vehicle-treated control; assay type: cell-based; conditions: BV-2
[11] = molecular target: T1, Oxysterols receptor LXR-beta (Mus musculus); experiment: Agonist activity at LXRbeta in mouse BV2 cells assessed as upregulation of apoE protein expression at 1 uM after 48 hrs by Western blot analysis relative to vehicle-treated control; assay type: cell-based; conditions: BV-2
HepG2 [12] = experiment: Induction of intracellular triglyceride accumulation in human HepG2 cells at 10 uM after 4 days relative to vehicle-treated control; assay type: cell-based; conditions: hepg2, 96 h
[13] = molecular target: T1, Oxysterols receptor LXR-beta (Mus musculus); experiment: Agonist activity at LXRbeta in mouse RAW264.7 cells assessed as upregulation of ABCA1 protein expression after 18 to 48 hrs by Western blot analysis; assay type: cell-based
HepG2 [14] = experiment: Induction of cytoplasmic lipid accumulation in human HepG2 cells at 10 uM after 4 days by oil red O staining-based light microscopic analysis; assay type: cell-based; conditions: hepg2, 96 h
BV-2 [15] = experiment: Upregulation of NEP mRNA expression in mouse BV2 cells at 0.01 to 1 uM after 18 hrs by real-time qPCR analysis; assay type: functional, cell-based
[16] = molecular target: T1, Oxysterols receptor LXR-beta (Mus musculus); experiment: Agonist activity at LXRbeta in mouse BV2 cells assessed as upregulation of apoE protein expression at 0.1 uM after 48 hrs by Western blot analysis relative to vehicle-treated control; assay type: cell-based; conditions: BV-2
[17] = molecular target: T1, Oxysterols receptor LXR-beta (Mus musculus); experiment: Agonist activity at LXRbeta in mouse BV2 cells assessed as degradation of intracellular amyloid beta42 preincubated for 18 hrs followed by soluble amyloid beta42 addition measured after 24 hrs by ELISA; assay type: cell-based; conditions: BV-2

Activity [1]: 29%
Activity [7]: 52%
fold change (FC) [8]: 0.99
Activity [9]: Active
Activity [10]: 59%
fold change (FC) [11]: 1.9
Activity (HepG2 [12]): -0.3%
Activity [13]: Dose-dependent effect
fold change (FC) [16]: 1.6
Activity [17]: Dose-dependent effect
SMILES: Cc1ccc(/C=C/C(=O)c2ccc(N)cc2O)o1
Activity (Mus musculus [2]): Active
Activity (BV-2 [3]): inactive
Activity (BV-2 [4]): Non-toxic
Activity (Mus musculus [5]): Active
Activity (HepG2 [6]): Non-toxic
Activity (HepG2 [14]): Toxic
Activity (BV-2 [15]): inactive
